The results in this text go back to patent US10220024B2, “Method of inhibiting cancer cell, method for detecting cancer cell, and system for detecting cancer cell” (CANON KABUSHIKI KAISHA, priority 2012, dated 2019).

Like-named read-outs stand apart in the source and are kept apart here.

For series [1], the system named is K562 ALDH (+) fraction (cancer stem cells). The series can be described thus: Cancer stem-cell selective inhibitory action against chronic myelocytic leukemia cells, ALDH (+) fraction, CellTiter-Glo. Type of series: cell-based. To be noted: Homo sapiens, 24 hours; for activity at 10 µg/mL: 10 μg/ml; for activity at 1 µg/mL: 1 μg/mL. The method, then: (§1) Human chronic myelocytic leukemia cells, K562, were pre-cultured in RPMI1640 medium containing 10% FBS at 37° C. in a 5% CO2 ambient. Then, a fraction containing 80% or more of cancer stem cells was extracted by use of ALDEFLUOR reagent (manufactured by VERITAS Corporation) and FACSAria flow cytometry (manufactured by Nippon Becton, Dickinson and Company). Subsequently, Compound (5) was added to the medium so as to obtain a final concentration of 10 μg/mL and cultured at 37° C. for 24 hours in a 5% CO2 ambient. The cultured cells were analyzed for viable cell count according to CellTiter-Glo Luminescent Cell Viability Assay (manufactured by Promega KK.). As a reference, the number of cells cultured in a medium containing a 0.1% dimethylsulfoxide solution (hereinafter, simply referred to as DMSO) in place of a medium containing Compound (1), in the aforementioned operation, was used as 0.1. Note that hereinafter, an ALDEFLUOR reagent positive fraction (deemed as cancer stem cells) is represented by ALDH (+), whereas an ALDEFLUOR reagent negative fraction (not deemed as cancer stem cells) is represented by ALDH (−), in some cases.
(§2) The same operation as in Experimental Example 12 was repeated except that Compound (5) in Experimental Example 12 was changed to the compounds shown in Table 4 and final concentrations shown in Table 4 were used and viable cell counts were separately analyzed. Note that the growth rate in Examples herein is a numerical value of the number of cells obtained after culture relative to the number of cells (regarded as 0.1) grown in a medium containing 0.1% DMSO.
(§3) The same operation as in Experimental Example 12 was repeated except that Compound (5) in Experimental Example 12 was changed to Imatinib (manufactured by NOVARTIS), which is a general anticancer drug, and comparative compounds shown in Table 4 and final concentrations shown in Table 4 were used and viable cell counts were separately analyzed.
(§4) The growth suppressive effect of cancer stem cells was evaluated based on the following criteria. Note that the growth rate in Examples herein is a numerical value relative to the number of cells (regarded as 0.1) grown in a medium containing 0.1% DMSO. • A: The value of ALDH (+) is less than 0.5 (growth suppressive effect against cancer stem cells is extremely high) • B: The value of ALDH (+) is 0.5 or more and less than 0.95 (growth suppressive effect against cancer stem cells is high) • C: The value of ALDH (+) is 0.95 or more (no growth suppressive effect against cancer stem cells)
(§5) Furthermore, superiority of cancer stem cells was evaluated by comparing cancer stem cells to cancer cells based on the following criteria. ALDH (+) represents cancer stem cells; whereas ALDH (−) represents general cancer cells. • A: The value of ALDH (+)/ALDH (−) is less than 0.8 (selective inhibitory effect against cancer stem cells is extremely high) • B: The value of ALDH (+)/ALDH (−) is 0.8 or more and less than 0.95 (selective inhibitory effect against cancer stem cells is high) • C: The value of ALDH (+)/ALDH (−) is 0.95 or more (no selective inhibitory effect against cancer stem cells)
In general terms: ATP-based viability assays read luminescence as a measure of living cells.

Series [2] concerns K562 ALDH (−) fraction (general cancer cells). In words: Cancer stem-cell selective inhibitory action against chronic myelocytic leukemia cells, ALDH (−) fraction, CellTiter-Glo. Type of series: cell-based, Human. Conditions: Homo sapiens, 24 hours, relative to 0.1% DMSO, read-out: ALDH(−) (growth rate); for activity at 10 µg/mL: 10 μg/ml; for activity at 1 µg/mL: 1 μg/mL. The method, then: as §1, §2, §3, §4, §5

Series [3] in a line: Measurement of fluorescent property of compound (spectrofluorometer). It counts as physicochemical. Conditions: 5 μM DMSO solution. The procedure:
The excitation wavelength and fluorescence wavelength of the compound were measured by a FL4500 spectrofluorometric measuring machine manufactured by Hitachi High-Technologies Corporation.

Series [4] concerns Human pancreas cancer cells, KLM-1. In words: Cancer cell inhibitory (growth suppressive) action against pancreatic cancer cells, CellTiter-Glo viable cell count. It counts as cell-based. To be noted: KLM1, KLM-1, 10 μg/mL, 24 hours. The method, then:
(§6) Observation on cancer cell inhibitory (growth suppressive) action against pancreatic cancer cells Human pancreas cancer cells, KLM-1, were pre-cultured in RPMI1640 medium containing 10% FBS at 37° C. in a 5% CO2 ambient. Thereafter, 4,000 cells were seeded per well of a 96-well plate and further cultured for 24 hours. Subsequently, Compound (1) was added to the medium so as to obtain a final concentration of 10 μg/mL and cultured at 37° C. for 24 hours in a 5% CO2 ambient. The cultured cells were analyzed for viable cell count according to CellTiter-Glo Luminescent Cell Viability Assay (manufactured by Promega KK.). As a reference, the number of cells cultured in a medium containing a 0.1% dimethylsulfoxide solution (hereinafter, simply referred to as DMSO) in place of a medium containing Compound (1), in the aforementioned operation, was regarded (100%).
Viable cell count was analyzed in the same manner as in Experimental Example 1 except that Compound (1) of Experimental Example 1 was changed to compounds shown in Table 2.
Viable cell count was analyzed in the same manner as in Experimental Example 1 except that Compound (1) was changed to comparative compounds 1 to 4.
Viable cell counts of Experimental Examples 1 to 7 and Comparative Examples 1 to 4 were analyzed to obtain growth rates.
Evaluation of cancer cell inhibition against the pancreatic cancer cells (KLM-1) (growth suppression) was made based on the following criteria. Note that the growth rate in Examples herein is a numerical value of the number of cells obtained after culture relative to the number of cells (regarded as 100) grown in a medium containing 0.1% DMSO. Evaluation of cancer cell inhibition against the pancreatic cancer cells (KLM-1) was made as follows. • A: Cancer cell growth rate is less than 20% (cancer cell inhibitory (growth suppressive) effect is extremely high) • B: Cancer cell growth rate is 20% or more and less than 50% (cancer cell inhibitory (growth suppressive) effect is high) • C: Cancer cell growth rate is 50% or more (cancer cell inhibitory (growth suppressive) effect is low)

Series [5] relates to Prostatic cancer cells, PC-3. The series can be described thus: Cancer cell inhibitory (growth suppressive) action against prostatic cancer cells, CellTiter-Glo viable cell count. Type of series: cell-based. To be noted: PC-3, 10 μg/mL, 24 hours. The procedure:
as §6, with “Prostatic” for “Observation on cancer cell inhibitory (growth suppressive) action against pancreatic cancer cells Human pancreas”, “PC-3,” for “KLM-1,”, “(11)” for “(1)”, “(11),” for “(1),”, “used as 100.” for “regarded (100%).”
Viable cell count was analyzed in the same manner as in Experimental Example 8 except that the compounds shown in Table 3 were used in place of Compound (11) of Experimental Example 8.
Viable cell count was analyzed in the same manner as in Experimental Example 8 except that comparative compounds 1 to 4 were used in place of Compound (11) of Experimental Example 8.
The growth rate in Examples herein is a numerical value of the number of cells obtained after culture relative to the number of cells (regarded as 100) grown in a medium containing 0.1% DMSO.
Evaluation of cancer cell inhibition against the prostatic cancer cells (PC-3) was made as follows. • A: Cancer cell growth rate is less than 20% (cancer cell inhibitory (growth suppressive) effect is extremely high) • B: Cancer cell growth rate is 20% or more and less than 50% (cancer cell inhibitory (growth suppressive) effect is high) • C: Cancer cell growth rate is 50% or more (cancer cell inhibitory (growth suppressive) effect is low)

Setting [6] is: read-out: Growth suppression evaluated.
Setting [7] is: relative to 0.1% DMSO, read-out: ALDH(+) (growth rate).
Where [8] appears, read: read-out: Evaluation (cancer cell growth rate).
The mark [9] stands for this setting: relative to 0.1% DMSO (100), read-out: Cancer cell growth rate (%).

On to `CCN1c2ccc(/C=C/C3=[N+](C)c4ccc5ccccc5c4C3(C)C)cc2C2CCCC21` (stereo not drawn) [Compound 39], for which the activity at 10 µg/mL is less than 50% in series [1] (setting [6]), 6% in series [1] (setting [7]) and 13% in series [2]. The compound also registered an Excitation wavelength λex in series [3] of 591 nm. For the same compound, the Fluorescence wavelength λem in series [3] was 626 nm.

Take `CCn1c2ccccc2c2cc(/C=C3/SC(=S)N(CC(=O)O)C3=O)ccc21` [compound 4, reference compound]: the activity at 10 µg/mL in series [4] (setting [8]) was not below 50%; in series [4] (setting [9]), 100%; in series [5] (setting [8]), not below 50%; in series [5] (setting [9]), 99.9%.

Turning to `CCn1c2ccccc2c2cc(/C=C/C3=[N+](C)c4ccc5ccccc5c4C3(C)C)ccc21` [Compound 40], the activity at 1 µg/mL in series [1] (setting [6]) was 50 to 95%; in series [1] (setting [7]), 73%; in series [2] it was 85%. In addition, the activity at 10 µg/mL in series [1] (setting [6]) was less than 50%; in series [1] (setting [7]) it was 6%; in series [2], 13%.

Regarding `CCN1C(=O)/C(=c2\s/c(=C/c3ccc4c(c3)c3ccccc3n4CC)c(=O)n2CC(=O)O)SC1=S` [compound 1, reference compound], the activity at 10 µg/mL in series [4] (setting [8]) is not below 50%; in series [4] (setting [9]) it was 99%; in series [5] (setting [8]) it was not below 50%; in series [5] (setting [9]), 104%.

For `CCOC(=O)Cn1c(=O)/c(=C\c2ccc3c(c2)C2CCCC2N3c2ccccc2)s/c1=C1/SC(=S)N(CC)C1=O` (stereo not drawn) [compound 2, reference compound], the activity at 10 µg/mL in series [4] (setting [8]) is not below 50%; in series [4] (setting [9]), 91%; in series [5] (setting [8]), not below 50%; in series [5] (setting [9]) it was 88.8%.

For the compound `CCN1c2ccc(/C=C/C3=[N+](C)c4ccccc4C3(C)C)cc2C2CCCC21` (stereo not drawn) [Compound 34], the activity at 10 µg/mL was less than 50% in series [1] (setting [6]), 17% in series [1] (setting [7]) and 24% in series [2]. In addition, in series [3], the Excitation wavelength λex is 575 nm. For the same compound, the Fluorescence wavelength λem in series [3] was determined as 611 nm.

`COc1ccc(N2c3ccc(/C=C/C4=[N+](C)c5ccccc5C4(C)C)cc3C3CCCC32)cc1` (stereo not drawn) [Compound 38]: the figures for the activity at 10 µg/mL in series [1] (setting [6]), in series [1] (setting [7]) and in series [2] were less than 50%, 5% and 11%, respectively. In series [3], this compound yielded an Excitation wavelength λex of 573 nm. In addition, in series [3], the Fluorescence wavelength λem worked out at 670 nm.

In series [3], `CC1(C)C(/C=C/c2ccc3c(c2)C2CCCC2N3c2ccc(C=C(c3ccccc3)c3ccccc3)cc2)=[N+](CCC(=O)O)c2ccccc21` (stereo not drawn) [Compound 31] came in with an Excitation wavelength λex of 611 nm and a Fluorescence wavelength λem of 720 nm.

In the case of `CCN1c2ccc(/C=C/C3=[N+](CC)c4ccc(OC)cc4C34CCCCC4)cc2C2CCCC21` (stereo not drawn) [Compound 8], the activity at 10 µg/mL in series [4] (setting [8]) was 20 to 50%; in series [4] (setting [9]), 24.3%; in series [1] (setting [6]), less than 50%; in series [1] (setting [7]), 23%; in series [2], 32%. For the same compound, the Excitation wavelength λex in series [3] came to 586 nm. The Fluorescence wavelength λem in series [3] was found to be 623 nm.

Regarding `COc1ccc(N2c3ccc(/C=C/C4=[N+](CCC(=O)O)c5ccccc5C4(C)C)cc3C3CCCC32)cc1` (stereo not drawn) [Compound 32], the activity at 10 µg/mL in series [1] (setting [6]) was 50 to 95%; in series [1] (setting [7]) it was 78%; in series [2], 90%. This compound displayed an Excitation wavelength λex in series [3] of 592 nm. Besides, the Fluorescence wavelength λem in series [3] turned out to be 671 nm.

In the case of `COc1ccc(N2c3ccc(/C=C/c4sc5ccccc5[n+]4CC(=O)O)cc3C3CCCC32)cc1` (stereo not drawn) [Compound 33], the activity at 10 µg/mL in series [1] (setting [6]) was 50 to 95%; in series [1] (setting [7]), 90%; in series [2] it was 101%. In addition, in series [3], the Excitation wavelength λex came out at 560 nm. Moreover, the Fluorescence wavelength λem in series [3] worked out at 677 nm.

For `O=C(O)Cn1c(=O)/c(=C\c2ccc3c(c2)C2CCCC2N3c2ccccc2)s/c1=C1/SC(=S)N(Cc2ccccc2)C1=O` (stereo not drawn) [compound 5, reference compound], the results for the activity at 1 µg/mL in series [1] (setting [6]), in series [1] (setting [7]) and in series [2] were not below 95%, 106% and 97%, respectively. Besides, the activity at 10 µg/mL is not below 95% in series [1] (setting [6]), 107% in series [1] (setting [7]) and 90% in series [2].

For `CCn1c2ccccc2c2cc(/C=C/C3=[N+](C)c4ccccc4C3(C)C)ccc21` [Compound 36], the values for the activity at 10 µg/mL in series [1] (setting [6]), in series [1] (setting [7]) and in series [2] were less than 50%, 13% and 20%, respectively. In series [3], this compound displayed an Excitation wavelength λex of 488 nm. For the same compound, the Fluorescence wavelength λem in series [3] was 594 nm.
